# Laboratory results reported in US10351522B2, “Sulfonamide derivative and pharmaceutically acceptable acid addition salt thereof” (UNIVERSITY OF TSUKUBA, priority 2015, dated 2019).
# What was measured:
# human OX2R = biological target: T1, human OX2R (Homo sapiens, UniProt O43614); assay: Agonist activity against OX2R: intracellular calcium (Fura-2AM, FDSS7000) in CHOOX2R cells; assay type: cell-based; settings: relative to orexin-A as full agonist (100%)
# T1 construct: expressed in transfected cells; host or cells: CHO (Chinese hamster ovary) cells, line CHOOX2R, co-expressing NFAT-luciferase
# T1 sequence (O43614 1-444): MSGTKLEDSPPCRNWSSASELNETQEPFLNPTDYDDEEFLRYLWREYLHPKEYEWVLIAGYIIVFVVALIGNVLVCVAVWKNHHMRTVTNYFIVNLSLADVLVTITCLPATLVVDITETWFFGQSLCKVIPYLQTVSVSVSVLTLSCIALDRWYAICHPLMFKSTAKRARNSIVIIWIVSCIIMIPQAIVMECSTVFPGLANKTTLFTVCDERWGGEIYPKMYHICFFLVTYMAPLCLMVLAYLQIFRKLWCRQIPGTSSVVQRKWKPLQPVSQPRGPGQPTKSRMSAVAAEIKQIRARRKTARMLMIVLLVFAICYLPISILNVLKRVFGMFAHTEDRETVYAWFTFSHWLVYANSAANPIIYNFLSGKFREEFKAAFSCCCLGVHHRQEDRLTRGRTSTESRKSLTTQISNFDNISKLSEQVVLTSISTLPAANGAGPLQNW
# Procedure, shortened: (§1)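 CHO cells stably expressing human OX1R or OX2R (plus NFAT-luciferase) were loaded with 5 μM Fura-2AM for 60 min, then given compound at 10^−7 to 10^−5 M final (1% DMSO). Calcium change read as 340/380 nm excitation fluorescence ratio; response expressed as % of orexin-A maximal activity at 10, 1.0 and 0.1 μM.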
# human OX1R = biological target: T2, human OX1R (Homo sapiens, UniProt O43613); assay: Agonist activity against OX1R: intracellular calcium (Fura-2AM, FDSS7000) in CHOOX1R cells; assay type: cell-based; settings: for Emax at 0.1 µM / Emax at 1 µM / Emax at 10 µM: read-out: Response (%) OX1R; for Response (%) OX1R: relative to orexin-A as full agonist (100%)
# T2 construct: expressed in transfected cells; host or cells: CHO (Chinese hamster ovary) cells, line CHOOX1R, co-expressing NFAT-luciferase
# T2 sequence (O43613 1-425): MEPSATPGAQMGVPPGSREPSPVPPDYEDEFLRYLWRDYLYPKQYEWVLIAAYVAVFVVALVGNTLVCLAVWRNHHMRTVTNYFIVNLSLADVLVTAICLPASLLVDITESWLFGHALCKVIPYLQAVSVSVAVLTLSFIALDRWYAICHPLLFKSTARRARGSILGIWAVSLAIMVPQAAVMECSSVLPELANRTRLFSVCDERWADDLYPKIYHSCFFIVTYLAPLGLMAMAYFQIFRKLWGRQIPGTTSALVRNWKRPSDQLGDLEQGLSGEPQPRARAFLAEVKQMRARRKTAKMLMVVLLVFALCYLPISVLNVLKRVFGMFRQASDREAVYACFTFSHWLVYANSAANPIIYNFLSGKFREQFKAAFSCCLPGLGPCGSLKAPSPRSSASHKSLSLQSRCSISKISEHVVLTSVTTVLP
# Procedure, shortened: as §1
SMILES,Response (%) OX2R (human OX2R; test compound 0.1 μM) [%],Response (%) OX2R (human OX2R; test compound 1.0 μM) [%],Response (%) OX2R (human OX2R; test compound 10 μM) [%],Emax at 0.1 µM (human OX1R) [%],Emax at 1 µM (human OX1R) [%],Emax at 10 µM (human OX1R) [%],Response (%) OX2R (human OX2R; 0.1 μM test compound) [%],Response (%) OX2R (human OX2R; 1.0 μM test compound) [%],Response (%) OX2R (human OX2R; 10 μM test compound) [%],Response (%) OX1R (human OX1R; 0.1 μM test compound) [%],Response (%) OX1R (human OX1R; 1.0 μM test compound) [%],Response (%) OX1R (human OX1R; 10 μM test compound) [%],Response (%) OX1R (human OX1R; test compound 0.1 μM) [%],Response (%) OX1R (human OX1R; test compound 1.0 μM) [%],Response (%) OX1R (human OX1R; test compound 10 μM) [%]
"COc1ccc(-c2cccc(C(=O)N(C)C)c2)cc1S(=O)(=O)Nc1cccc(N(C)C(=O)Nc2cccc(N(C)C)c2)c1 [Example 125, 3′-(N-(3-(3-(3-(dimethylamino)phenyl)-1-methylureido)phenyl)sulfamoyl)-4′-methoxy-N,N-dimethyl-[1,1′-biphenyl]-3-carboxamide]",42,78,79,< 5,< 5,< 5,–,–,–,–,–,–,–,–,–
COc1ccc(-c2cccc(C(=O)N(C)C)c2)cc1S(=O)(=O)Nc1cccc(NC(=O)Nc2ccc(C)cc2)c1 [Example 56],–,–,–,–,–,–,95,96,82,<5,<5,19,–,–,–
CCN(Cc1cccnc1)C(=O)c1ccc(OC)c(S(=O)(=O)Nc2cccc(NC(=O)Nc3ccc(N(C)C)cc3)c2)c1 [Example 111],32,88,100,–,–,–,–,–,–,–,–,–,<5,<5,<5
COc1ccc(-c2cccc(C(=O)N(C)C)c2)cc1S(=O)(=O)Nc1cccc(NC(=O)Nc2ccccn2)c1 [Example 68],–,–,–,–,–,–,10,10,57,6,6,6,–,–,–
"COc1ccc(-c2cccc(C(=O)N(C)C)c2)cc1S(=O)(=O)Nc1cccc(NC(=O)N(C)c2cccc(N(C)C)c2)c1 [Example 127, 3′-(N-(3-(3-(3-(dimethylamino)phenyl)-3-methylureido)phenyl)sulfamoyl)-4′-methoxy-N,N-dimethyl-[1,1′-biphenyl]-3-carboxamide]",106,90,73,< 5,7,56,–,–,–,–,–,–,–,–,–
COc1ccc(-c2cccc(C(=O)N(C)C)c2)cc1S(=O)(=O)Nc1cccc(NC(=O)Nc2cccc(C)c2)c1 [Example 38],–,–,–,–,–,–,68,82,71,<5,<5,<5,–,–,–
CCN(Cc1ccccc1)C(=O)c1ccc(OC)c(S(=O)(=O)Nc2cccc(NC(=O)Nc3cccc(N(C)C)c3)c2)c1 [Example 101],20,89,111,–,–,–,–,–,–,–,–,–,<5,<5,<5
COc1ccc(-c2cccc(C(=O)N(C)C)c2)cc1S(=O)(=O)Nc1cccc(NC(=O)c2ccccc2Br)c1 [Example 2],–,–,–,–,–,–,<5,26,74,13,11,32,–,–,–
COc1ccc(-c2cccc(C(=O)N(C)C)c2)cc1S(=O)(=O)Nc1cccc(N)c1 [Example 99],19,14,76,–,–,–,–,–,–,–,–,–,8,8,9
COc1ccc(-c2cccc(C(=O)N(C)C)c2)cc1S(=O)(=O)Nc1cccc(NC(=O)Nc2ccc(NC(=N)NC(=O)OC(C)(C)C)cc2)c1 [Example 59],–,–,–,–,–,–,<5,18,52,<5,<5,<5,–,–,–
"COc1ccc(-c2cccc(C(=O)N(C)C)c2)cc1S(=O)(=O)Nc1cccc(Nc2ccccc2)c1 [Example 30, 4′-methoxy-N,N-dimethyl-3′-(N-(3-(phenylamino)phenyl)sulfamoyl)-[1,1′-biphenyl]-3-carboxamide]",–,–,–,< 5,< 5,< 5,<5,<5,39,–,–,–,–,–,–
